{
  "source": "the NIST ThermoML archive (doi:10.1021/acs.jced.7b00773)",
  "conditions": "Liquid; for viscosity: Concentric cylinders viscometry",
  "note": "Numbers after ± are expanded uncertainties.",
  "data": [
    {"smiles": "CCn1cc[n+](C)c1.N#C[B-](C#N)(C#N)C#N", "note": "[1-ethyl-3-methylimidazolium tetracyanoborate]", "values": [
      {"measurement": "mass density", "setting": "351.8 K, 180000 kPa, Bellows volumetry", "value": "1078.4 ± 2.6", "unit": "kg/m3"},
      {"measurement": "mass density", "setting": "351.8 K, 190000 kPa, Bellows volumetry", "value": "1081.9 ± 2.6", "unit": "kg/m3"},
      {"measurement": "mass density", "setting": "351.8 K, 200000 kPa, Bellows volumetry", "value": "1085.3 ± 2.6", "unit": "kg/m3"},
      {"measurement": "viscosity", "setting": "353.15 K, 100 kPa", "value": "4.537 ± 0.21", "unit": "mPa·s"},
      {"measurement": "mass density", "setting": "353.15 K, 100 kPa, Vibrating tube method", "value": "994.8 ± 2.3", "unit": "kg/m3"},
      {"measurement": "viscosity", "setting": "363.15 K, 100 kPa", "value": "3.833 ± 0.18", "unit": "mPa·s"},
      {"measurement": "mass density", "setting": "363.15 K, 100 kPa, Vibrating tube method", "value": "987.5 ± 2.3", "unit": "kg/m3"},
      {"measurement": "mass density", "setting": "372 K, 10000 kPa, Bellows volumetry", "value": "987.2 ± 2.6", "unit": "kg/m3"},
      {"measurement": "mass density", "setting": "372 K, 20000 kPa, Bellows volumetry", "value": "993.6 ± 2.6", "unit": "kg/m3"},
      {"measurement": "mass density", "setting": "372 K, 30000 kPa, Bellows volumetry", "value": "999.6 ± 2.6", "unit": "kg/m3"},
      {"measurement": "mass density", "setting": "372 K, 40000 kPa, Bellows volumetry", "value": "1005.4 ± 2.6", "unit": "kg/m3"},
      {"measurement": "mass density", "setting": "372 K, 50000 kPa, Bellows volumetry", "value": "1010.8 ± 2.6", "unit": "kg/m3"},
      {"measurement": "mass density", "setting": "372 K, 60000 kPa, Bellows volumetry", "value": "1016 ± 2.6", "unit": "kg/m3"},
      {"measurement": "mass density", "setting": "372 K, 70000 kPa, Bellows volumetry", "value": "1021 ± 2.6", "unit": "kg/m3"},
      {"measurement": "mass density", "setting": "372 K, 80000 kPa, Bellows volumetry", "value": "1025.9 ± 2.6", "unit": "kg/m3"},
      {"measurement": "mass density", "setting": "372 K, 90000 kPa, Bellows volumetry", "value": "1030.5 ± 2.6", "unit": "kg/m3"},
      {"measurement": "mass density", "setting": "372 K, 100000 kPa, Bellows volumetry", "value": "1035.1 ± 2.6", "unit": "kg/m3"},
      {"measurement": "mass density", "setting": "372 K, 110000 kPa, Bellows volumetry", "value": "1039.5 ± 2.6", "unit": "kg/m3"},
      {"measurement": "mass density", "setting": "372 K, 120000 kPa, Bellows volumetry", "value": "1043.8 ± 2.6", "unit": "kg/m3"},
      {"measurement": "mass density", "setting": "372 K, 130000 kPa, Bellows volumetry", "value": "1048 ± 2.6", "unit": "kg/m3"},
      {"measurement": "mass density", "setting": "372 K, 140000 kPa, Bellows volumetry", "value": "1052.1 ± 2.6", "unit": "kg/m3"},
      {"measurement": "mass density", "setting": "372 K, 150000 kPa, Bellows volumetry", "value": "1055.9 ± 2.6", "unit": "kg/m3"},
      {"measurement": "mass density", "setting": "372 K, 160000 kPa, Bellows volumetry", "value": "1059.8 ± 2.6", "unit": "kg/m3"},
      {"measurement": "mass density", "setting": "372 K, 170000 kPa, Bellows volumetry", "value": "1063.5 ± 2.6", "unit": "kg/m3"},
      {"measurement": "mass density", "setting": "372 K, 180000 kPa, Bellows volumetry", "value": "1067.2 ± 2.6", "unit": "kg/m3"},
      {"measurement": "mass density", "setting": "372 K, 190000 kPa, Bellows volumetry", "value": "1070.9 ± 2.6", "unit": "kg/m3"},
      {"measurement": "mass density", "setting": "372 K, 200000 kPa, Bellows volumetry", "value": "1074.4 ± 2.6", "unit": "kg/m3"},
      {"measurement": "viscosity", "setting": "373.15 K, 100 kPa", "value": "3.289 ± 0.15", "unit": "mPa·s"},
      {"measurement": "mass density", "setting": "373.15 K, 100 kPa, Vibrating tube method", "value": "980.3 ± 2.3", "unit": "kg/m3"},
      {"measurement": "mass density", "setting": "392.1 K, 10000 kPa, Bellows volumetry", "value": "973 ± 2.6", "unit": "kg/m3"},
      {"measurement": "mass density", "setting": "392.1 K, 20000 kPa, Bellows volumetry", "value": "979.8 ± 2.6", "unit": "kg/m3"},
      {"measurement": "mass density", "setting": "392.1 K, 30000 kPa, Bellows volumetry", "value": "986.2 ± 2.6", "unit": "kg/m3"},
      {"measurement": "mass density", "setting": "392.1 K, 40000 kPa, Bellows volumetry", "value": "992.2 ± 2.6", "unit": "kg/m3"},
      {"measurement": "mass density", "setting": "392.1 K, 50000 kPa, Bellows volumetry", "value": "998 ± 2.6", "unit": "kg/m3"},
      {"measurement": "mass density", "setting": "392.1 K, 60000 kPa, Bellows volumetry", "value": "1003.4 ± 2.6", "unit": "kg/m3"},
      {"measurement": "mass density", "setting": "392.1 K, 70000 kPa, Bellows volumetry", "value": "1008.6 ± 2.6", "unit": "kg/m3"},
      {"measurement": "mass density", "setting": "392.1 K, 80000 kPa, Bellows volumetry", "value": "1013.8 ± 2.6", "unit": "kg/m3"},
      {"measurement": "mass density", "setting": "392.1 K, 90000 kPa, Bellows volumetry", "value": "1018.6 ± 2.6", "unit": "kg/m3"},
      {"measurement": "mass density", "setting": "392.1 K, 100000 kPa, Bellows volumetry", "value": "1023.3 ± 2.6", "unit": "kg/m3"},
      {"measurement": "mass density", "setting": "392.1 K, 110000 kPa, Bellows volumetry", "value": "1028 ± 2.6", "unit": "kg/m3"},
      {"measurement": "mass density", "setting": "392.1 K, 120000 kPa, Bellows volumetry", "value": "1032.4 ± 2.6", "unit": "kg/m3"},
      {"measurement": "mass density", "setting": "392.1 K, 130000 kPa, Bellows volumetry", "value": "1036.6 ± 2.6", "unit": "kg/m3"},
      {"measurement": "mass density", "setting": "392.1 K, 140000 kPa, Bellows volumetry", "value": "1040.8 ± 2.6", "unit": "kg/m3"},
      {"measurement": "mass density", "setting": "392.1 K, 150000 kPa, Bellows volumetry", "value": "1044.9 ± 2.6", "unit": "kg/m3"},
      {"measurement": "mass density", "setting": "392.1 K, 160000 kPa, Bellows volumetry", "value": "1048.8 ± 2.6", "unit": "kg/m3"},
      {"measurement": "mass density", "setting": "392.1 K, 170000 kPa, Bellows volumetry", "value": "1052.8 ± 2.6", "unit": "kg/m3"},
      {"measurement": "mass density", "setting": "392.1 K, 180000 kPa, Bellows volumetry", "value": "1056.5 ± 2.6", "unit": "kg/m3"},
      {"measurement": "mass density", "setting": "392.1 K, 190000 kPa, Bellows volumetry", "value": "1060.2 ± 2.6", "unit": "kg/m3"},
      {"measurement": "mass density", "setting": "392.1 K, 200000 kPa, Bellows volumetry", "value": "1063.9 ± 2.6", "unit": "kg/m3"},
      {"measurement": "mass density", "setting": "412.2 K, 10000 kPa, Bellows volumetry", "value": "959.2 ± 2.6", "unit": "kg/m3"},
      {"measurement": "mass density", "setting": "412.2 K, 20000 kPa, Bellows volumetry", "value": "966.3 ± 2.6", "unit": "kg/m3"},
      {"measurement": "mass density", "setting": "412.2 K, 30000 kPa, Bellows volumetry", "value": "973 ± 2.6", "unit": "kg/m3"},
      {"measurement": "mass density", "setting": "412.2 K, 40000 kPa, Bellows volumetry", "value": "979.4 ± 2.6", "unit": "kg/m3"},
      {"measurement": "mass density", "setting": "412.2 K, 50000 kPa, Bellows volumetry", "value": "985.4 ± 2.6", "unit": "kg/m3"},
      {"measurement": "mass density", "setting": "412.2 K, 60000 kPa, Bellows volumetry", "value": "991.1 ± 2.6", "unit": "kg/m3"},
      {"measurement": "mass density", "setting": "412.2 K, 70000 kPa, Bellows volumetry", "value": "996.6 ± 2.6", "unit": "kg/m3"},
      {"measurement": "mass density", "setting": "412.2 K, 80000 kPa, Bellows volumetry", "value": "1001.9 ± 2.6", "unit": "kg/m3"},
      {"measurement": "mass density", "setting": "412.2 K, 90000 kPa, Bellows volumetry", "value": "1007 ± 2.6", "unit": "kg/m3"},
      {"measurement": "mass density", "setting": "412.2 K, 100000 kPa, Bellows volumetry", "value": "1011.9 ± 2.6", "unit": "kg/m3"},
      {"measurement": "mass density", "setting": "412.2 K, 110000 kPa, Bellows volumetry", "value": "1016.6 ± 2.6", "unit": "kg/m3"},
      {"measurement": "mass density", "setting": "412.2 K, 120000 kPa, Bellows volumetry", "value": "1021.2 ± 2.6", "unit": "kg/m3"},
      {"measurement": "mass density", "setting": "412.2 K, 130000 kPa, Bellows volumetry", "value": "1025.7 ± 2.6", "unit": "kg/m3"},
      {"measurement": "mass density", "setting": "412.2 K, 140000 kPa, Bellows volumetry", "value": "1030 ± 2.6", "unit": "kg/m3"},
      {"measurement": "mass density", "setting": "412.2 K, 150000 kPa, Bellows volumetry", "value": "1034.1 ± 2.6", "unit": "kg/m3"},
      {"measurement": "mass density", "setting": "412.2 K, 160000 kPa, Bellows volumetry", "value": "1038.2 ± 2.6", "unit": "kg/m3"},
      {"measurement": "mass density", "setting": "412.2 K, 170000 kPa, Bellows volumetry", "value": "1042.2 ± 2.6", "unit": "kg/m3"},
      {"measurement": "mass density", "setting": "412.2 K, 180000 kPa, Bellows volumetry", "value": "1046.1 ± 2.6", "unit": "kg/m3"},
      {"measurement": "mass density", "setting": "412.2 K, 190000 kPa, Bellows volumetry", "value": "1049.9 ± 2.6", "unit": "kg/m3"},
      {"measurement": "mass density", "setting": "412.2 K, 200000 kPa, Bellows volumetry", "value": "1053.6 ± 2.6", "unit": "kg/m3"}
    ]}
  ]
}
